# In patent US20210236523A1, “P[…] FOR HEADACHE DISORDERS” (priority 2020, published 2021):
# Key:
# [1] = system: patients with migraine headache; assay: Placebo-controlled cross-over study of a single low oral dose of psilocybin in migraine headache: headache diary burden; type: in vivo, human
# Source text: The purpose of this exploratory study was to investigate the effects of a single low dose of psilocybin in patients with migraine headache in a controlled experiment. Basic information was gathered to assist in the development of future studies considering the effects and mechanism of action of 5-HT2A receptor compounds in migraine and other headache disorders.
# (§1) This study was registered on clinicaltrials.gov (NCT03341689) with approvals from the Human Studies Subcommittee of Veterans Affairs Connecticut Healthcare System (VACHS) and the Human Investigations Committee of Yale University School of Medicine. The study was conducted under an approved Investigational New Drug application (#124,874) with the US Food & Drug Administration, under a Schedule 1 license (author DCD). Psilocybin was provided by author NC from the University of Wisconsin. Weight-based capsules of psilocybin 0.143 mg/kg and matching placebo [microcrystalline cellulose; obtained from Fagron (St. Paul, Minn.)] were compounded into identical blue gel capsules by the VACHS Investigational Research Pharmacy for each subject.
# Adults (age 21 to 65 years, inclusive) free from serious medical or psychiatric disease with migraine headache as defined by the International Classification of Headache Disorders III-beta and with a frequency of migraine attacks of 2 per week or more were eligible to participate in this study. Among the excluded medical conditions were uncontrolled hypertension, coronary artery disease, cardiac arrhythmia, cerebrovascular disease, and serious central or peripheral nervous system or spinal disease (e.g., multiple sclerosis, amyotrophic lateral sclerosis). Psychotic or manic disorders in the subject or a first degree relative was also excluded, as were substance abuse within the past 3 months and any prior serious adverse event with psilocybin, LSD, or related compounds (i.e., mescaline). Prior exposure to psilocybin or related compounds through recreational or medicinal use or through participation in other research studies was not excluded, although any use in the past 3 months was prohibited. Alcohol use within one week of the first experimental test day was prohibited. Caffeine and nicotine were not restricted. Subjects were required to be free from serotonergic antidepressants (selective serotonin reuptake inhibitors, serotonin and norepinephrine reuptake inhibitors, monoamine oxidase inhibitors, tricyclics) for at least 6 weeks, serotonergic antiemetics (i.e., ondansetron) for at least 2 weeks, and vasoconstrictive medications (i.e., pseudoephedrine) for at least 5 half-lives of said medication. Triptans were permitted, but no more than twice weekly and not within 5 half-lives of said triptan before each test day and not within 5 half-lives of psilocybin (15 hours) after each test day.
# Subjects were instructed to maintain a headache diary starting two weeks before the first experimental session until two weeks after the second experimental session. Subjects documented every headache attack, migraine (with associated migrainous symptoms) or otherwise (without associated migrainous symptoms; not counted as a migraine attack). Associated symptoms—photophobia (light sensitivity), phonophobia (sound sensitivity), nausea/vomiting—as well as attack-related functional impairment were documented using a 0-3 visual analog scale (VAS): 0=none, 1=mild, 2-moderate, 3=severe. The abortive medications taken and their effects were also recorded in the diary. Only the 14 days prior to the first experimental session (baseline) and the 14 days after each experimental session (inclusive) were counted in the final analysis.
# Subjects completed two experimental sessions, separated by at least 14 days, which were conducted in the Neurobiological Studies Unit (NSU) at VACHS. Subjects reported to the NSU at 08:00; urine drug, urine pregnancy (when applicable), and alcohol breathalyzer tests were required to be negative in order to proceed. […]
# [2] = system: patients with cluster headache; assay: Randomized placebo-controlled study of a 3-dose psilocybin pulse regimen in cluster headache: headache diary; type: in vivo, human; settings: for effect size for change in weekly cluster attacks: psilocybin vs placebo; for change in the number of weekly cluster attacks / number of weekly cluster attacks: 3-dose pulse 0.143 mg/kg
# Source text: In this exploratory study, a patient-informed regimen (a low dose of psilocybin (between 1-2 grams dried P. cubensis taken three times, approximately 5 days apart each)) was studied in patients with cluster headache in a controlled, laboratory setting. The information gained from this study serves to (1) verify longstanding anecdotal reports and (2) design larger, more definitive studies examining the safety and efficacy of psilocybin in cluster headache.
# as §1, with “(NCT02981173)” for “(NCT03341689)”, “(microcrystalline” for “[microcrystalline”, “Minn.))” for “Minn.)]”
# Adults (age 21 to 65 years, inclusive) with cluster headache as defined by the International Classification of Headache Disorders III-beta 8 were eligible to participate in this study. Both chronic and episodic cluster headache subtypes were eligible, however certain conditions were required to ensure proper interpretation of the study intervention. For both chronic and episodic subjects, an attack frequency of approximately 1 attack per day or more was required. For episodic subjects, the typical cluster period was required to last approximately 2 months or more and study participation could only take place when at least 6 weeks of the period was anticipated to remain. Excluded medical conditions included, but were not limited to, uncontrolled hypertension, coronary artery disease, cardiac arrhythmia, cerebrovascular disease, and serious central or peripheral nervous system or spinal disease. Excluded psychiatric conditions included, but were not limited to, psychotic or manic disorders in the subject or a first degree relative and substance abuse within the past 3 months. Any prior serious adverse event with psilocybin, LSD, or related compounds (i.e., mescaline) was also exclusionary. Prior exposure to psilocybin or related compounds through recreational or medicinal use or through participation in other research studies was not excluded, although any use in the past 3 months was prohibited. Alcohol use within one week of the first experimental test day was prohibited. Caffeine and nicotine were not restricted. Subjects were required to be off serotonergic antidepressants (selective serotonin reuptake inhibitors, serotonin and norepinephrine reuptake inhibitors, monoamine oxidase inhibitors, tricyclics) for at least 6 weeks and serotonergic antiemetics (i.e., ondansetron) for at least 2 weeks from the first test day. Vasoconstrictive medications (i.e., sumatriptan, pseudoephedrine) could be used during the study period, but not within 5 half-lives of said medication and not within 5 half-lives of psilocybin (15 hours) after each test day. Triptans were also not allowed more than twice weekly.
# Subjects were instructed to maintain a headache diary starting 2 weeks before until 8 weeks after the first experimental session. Subjects documented every cluster attack, including date, onset, offset, pain intensity (0-10 visual analog scale (VAS): 0=none, 1=minimal, 5=moderate, 9=severe, 10=worst imaginable). The abortive treatments taken and their effects were also recorded in the diary. Only the 14 days prior to the first experimental session (baseline) and the 56 days after the first experimental session (inclusive) were counted in the final analysis. […]
# [3] = of 10 subjects, 14 days after single oral dose 0.143 mg/kg
# [4] = single oral dose 0.143 mg/kg, two weeks after dosing
smiles,measurement,setting,value
"CN(C)CCc1c[nH]c2cccc(OP(=O)(O)O)c12 [psilocybin, 3-(2-dimethylaminoethyl)-1H-indol-4-yl] dihydrogen phosphate]",change from baseline in attack-related functional impairment,"[1]; 0-3 VAS, single oral dose 0.143 mg/kg, mean (SEM), P=0.0235 vs placebo",−0.96 (0.26)
same,subjects with no migraine attacks after administration,[1]; [3],2 subjects
same,subjects with only one migraine attack after administration,[1]; [3],2 subjects
same,change in weekly migraine days (WMD) from baseline,"[1]; single oral dose 0.143 mg/kg, 14 days after dosing, mean (SEM), 10 subjects, P=0.0027 vs placebo",−1.65 (0.39) days/week
same,time to the second migraine attack after drug administration,"[1]; single oral dose 0.143 mg/kg, mean (SEM), 15 days used when no attack, P=0.0119 vs placebo",10.30 (1.61) days
same,time to the first migraine attack after drug administration,"[1]; single oral dose 0.143 mg/kg, mean (SEM), 15 days used when no attack, P=0.0554 vs placebo",6.30 (1.88) days
same,change from baseline in weekly migraine attacks (WMA),"[1]; single oral dose 0.143 mg/kg, mean (SEM), P=0.0039 vs placebo",−1.40 (0.36) attacks/week
same,change from baseline in pain severity,"[1]; single oral dose 0.143 mg/kg, mean (SEM), P=0.0109 vs placebo",−0.70 (0.16)
same,change from baseline in weekly migraine abortive use,"[1]; single oral dose 0.143 mg/kg, mean (SEM), P=0.0140 vs placebo",−0.65 (0.21) abortives/week
same,percentage of subjects who had 25% reduction in WMD,[1]; [4],80%
same,percentage of subjects who had 50% reduction in WMD,[1]; [4],50%
same,percentage of subjects who had 75% reduction in WMD,[1]; [4],30%
same,effect size for change in weekly cluster attacks,"[2]; chronic cluster headache subjects, 8 weeks",−1.20
same,change in the number of weekly cluster attacks,"[2]; chronic cluster headache subjects, across 8 weeks, P=0.080 vs placebo",−6.08 (2.29)
same,number of weekly cluster attacks,"[2]; chronic cluster headache subjects, across 8 weeks, group baseline 8.67 (2.42)",4.58 (0.77)
same,change in the number of weekly cluster attacks,"[2]; over the first 3 weeks, episodic and chronic combined, P=0.017 vs placebo",−6.03 (2.23)
same,number of weekly cluster attacks,"[2]; over the first 3 weeks, episodic and chronic patients combined, group baseline 9.30 (1.49)",3.50 (1.12)
same,effect size for change in weekly cluster attacks,[2]; three weeks,−1.89
